# Experiments:
# U373 cells = assay: Modulation of SK1-I lethality by signaling inhibitors, U373 cells; assay type: cell-based, human; conditions: U373, combined with SK1-I
# Description: (§1) Cells were plated at 10,000 cells/well in 48-well plates and allowed to attach for 24 h. Cell proliferation was measured at the indicated times with WST-1 and absorbance was measured in a plate reader at 450 nm with background subtraction at 630 nm. Cell death was detected by trypan blue exclusion assays in which the percent of blue dye incorporating cells were determined using a light microscope and a hemacytometer as described (Yacoub et al. Mol Cancer Ther 7:314-329, 2008). Apoptotic cell death was measured by staining cell nuclei with the Hoechst dye bisbenzimide and apoptotic cells were identified by condensed, fragmented nuclear regions as described previously (Sankala et al. Cancer Res 67:10466-10474, 2007). A minimum of 300 cells was scored.
# LN229 cells = assay type: cell-based; conditions: LN229, combined with SK1-I
# Description: as §1
Compound,effect on SK1-I lethality (U373 cells),effect on SK1-I lethality (LN229 cells)
N#CC(=C(/N)Sc1ccccc1N)/C(C#N)=C(\N)Sc1ccccc1N [U0126],enhanced,enhanced
Oc1ccc(-c2nc(-c3ccncc3)c(-c3ccc(F)cc3)[nH]2)cc1 [SB202190],enhanced,enhanced

# — US10945971B2, “Sphingosine kinase type 1 inhibitors and uses thereof” (Enzo Therapeutics, Inc., priority 2008, dated 2021)
